Experimental data published in PMC10057893, “Synthesis and Biological Evaluation of New Schiff Bases Derived from 4-Amino-5-(3-fluorophenyl)-1,2,4-triazole-3-thione” (Molecules, 2023).
pIC50: −log10 of the molar value. Values after ≈ are worked out from the molar mass of the structure shown. Like-named read-outs stand apart in the source and are kept apart here.

Columns and labels:
C. albicans = tested on: C. albicans; parameters: method as in PMID 25412038; conditions: cited from earlier work
MTT cell viability assay = type: cell-based; conditions: human, HaCaT cells (immortal keratinocytes), HaCaT normal cell line, read-out: Cytotoxic activity IC50 (converted)
Procedure: (§1) All the cell lines were purchased from the American Type Culture Collection (ATCC, Rockville, MD, USA) and cultured in strictly defined conditions according to the recommended ATCC protocol. The PC3 cells were cultured in RPMI 1640 (Roswell Park Memorial Institute, Biowest SAS, Nuaillé, France), while the MDA-MB-231 and HaCaT cells were maintained in DMEM (Dulbecco’s Modified Eagle’s Medium, Biowest SAS, Nuaillé, France) supplemented with 1% streptomycin and penicillin and in 10% heat-inactivated fetal bovine serum (FBS, Gibco BRL San Francisco, CA, USA) with 1% streptomycin and penicillin. The cells were incubated in a 37 °C/5% CO2 humidified incubator. They were cultured until 80–90% confluence was achieved. Then, they were harvested by treatment with 0.25% trypsin-0.02% EDTA (Gibco BRL, San Francisco, CA, USA) and used in the experiments. Untreated cells were used as a control. […] After 24 h of incubation, the culture medium was replaced with a fresh medium. […] Then, the medium was aspirated and formed formazan crystals were solubilized by adding isopropanol-DMSO mixture (1:1 vol). The intensity of the dissolved crystals was measured using a UVM 340 reader (ASYS Hitech GmbH, Eugendorf, Austria) at a wavelength of 570 nm. Cell viability was estimated by the percentage of MTT reduction in cells to which the tested compounds were added, compared to the control sample, where only the medium was added. The experiments were repeated three times. The IC50 was calculated using GraphPad Prism 9.0.0 (GraphPad Software).

[1] = tested on: Staphylococcus epidermidis ATCC 12228; assay: Broth microdilution MIC/MBC, antibacterial; type: cell-based; conditions: ATCC12228
Procedure: (§2) The minimal inhibitory concentration (MIC) was determined with the microdilution technique using 96-well polystyrene microplates (Medlab, Poland), as indicated by the European Committee on Antimicrobial Susceptibility Testing (EUCAST) guidelines. In this process, stock solutions of each tested Schiff base dissolved in dimethylsulphoxide (DMSO, Stanlab, Poland) were used at a concentration of 50 mg/mL. Before in vitro antibacterial activity detection, the basic concentration of 1000 µg/mL of each compound was prepared with Mueller–Hinton broth medium (MHB, BioMaxima, Lublin, Poland). The experiment was prepared using Mueller–Hinton broth medium in 96-well microplates. A series of two-fold dilutions of the tested compounds in the concentration range from 0.49 to 1000 μg/mL was made in culture broth medium. Then, 2 μL of bacterial inoculum with a density of 0.5 McFarland standard was added to each well. Each well was filled with a total volume of 100 μL. Then, the microtiter plates were incubated for 18 ± 2 h at 35 °C. After the incubation, the results were spectrophotometrically determined in Biotek ELx800 (Biokom, Janki, Poland) at 600 nm (OD600). The lowest concentration of the tested compounds with the absence of bacterial growth was determined as an MIC. Three replicates for each strain and compound were performed.
(§3) After incubation, 5 μL of the broth media cultured with bacteria or fungi were removed from each well of the plates used in the MIC experiments. Next, they were culturd onto the surface of the MHA medium (BioMaxima, Lublin, Poland) plate for bacteria or MHA +2% glucose plate for yeasts. The inoculated plates were incubated in the conditions mentioned above. After incubation, a visual reading of MBC or MFC values was made. […] Three replicates for each strain and compound were performed.

[2] = tested on: Pseudomonas aeruginosa ATCC 27853; assay: Broth microdilution MIC/MBC, antibacterial; type: cell-based; conditions: ATCC27853
Procedure: as §2, §3

[3] = tested on: Klebsiella pneumoniae ATCC 13883; assay: Broth microdilution MIC/MBC, antibacterial; type: cell-based; conditions: ATCC13883, Klebsiella pneumoniae ATCC 13883
Procedure: as §2, §3

[4] = tested on: Staphylococcus aureus ATCC 6538; assay: Broth microdilution MIC/MBC, antibacterial; type: cell-based; conditions: ATCC6538
Procedure: as §2, §3

[5] = tested on: Micrococcus luteus ATCC 10240; assay: Broth microdilution MIC/MBC, antibacterial; type: cell-based; conditions: ATCC10240
Procedure: as §2, §3

[6] = tested on: Escherichia coli ATCC 25922; assay: Broth microdilution MIC/MBC, antibacterial; type: cell-based; conditions: ATCC25922, Escherichia coli ATCC 25922
Procedure: as §2, §3

[7] = tested on: Bacillus subtilis ATCC 6633; assay: Broth microdilution MIC/MBC, antibacterial; type: cell-based; conditions: ATCC6633
Procedure: as §2, §3

MDA-MB-231 = assay: MTT cell viability assay; type: cell-based, human; conditions: Homo sapiens, MDA-MB-231, MTT, read-out: Cytotoxic activity IC50
Procedure: as §1

PC3 = assay: MTT cell viability assay; type: cell-based, human; conditions: Homo sapiens, PC-3, PC3, MTT, read-out: Cytotoxic activity IC50
Procedure: as §1

[8] = tested on: Candida krusei ATCC 14243; assay: Broth microdilution MIC/MFC, antifungal; type: cell-based; conditions: Pichia kudriavzevii, ATCC14243
Procedure: (§4) To determine the antifungal activity of the newly synthesized Schiff bases against the reference strains of Candida spp., the broth microdilution method was used according to the EUCAST [52] and Clinical and Laboratory Standards Institute (CLSI) guidelines with some modifications to the medium. Before in vitro antifungal activity detection, the basic concentration of 1000 µg/mL of each compound was prepared with Mueller–Hinton broth (BioMaxima, Lublin, Poland) supplemented with 2% glucose (MHB+2% glucose). […] The final concentrations of the Schiff bases ranged from […] to 1000 µg/mL. All the reference strains of Candida spp. used were first subcultured to the Mueller–Hinton agar medium (BioMaxima, Lublin, Poland) with 2% glucose (MHA +2% glucose) at 37 °C for 24 h. Next, 2 µL of appropriate fungal suspensions was added to each well containing 100 µL of MHB + 2% glucose and the various concentrations of the tested Schiff bases.
as §3

[9] = tested on: Candida albicans ATCC 10231; assay: Broth microdilution MIC/MFC, antifungal; type: cell-based; conditions: ATCC10231
Procedure: as §4, §3

[10] = tested on: Candida lusitaniae ATCC 3449; assay: Broth microdilution MIC/MFC, antifungal; type: cell-based; conditions: Clavispora lusitaniae, ATCC3449
Procedure: as §4, §3

[11] = tested on: Candida tropicalis ATCC 1369; assay: Broth microdilution MIC/MFC, antifungal; type: cell-based; conditions: ATCC1369
Procedure: as §4, §3

[12] = tested on: Candida glabrata ATCC 15126; assay: Broth microdilution MIC/MFC, antifungal; type: cell-based; conditions: Nakaseomyces glabratus, ATCC15126
Procedure: as §4, §3

Candida auris CDC B11903 = assay: Broth microdilution MIC/MFC, antifungal; type: cell-based; conditions: Candidozyma auris, CDCB11903
Procedure: as §4, §3

[13] = tested on: Candida glabrata ATCC 90030; assay: Broth microdilution MIC/MFC, antifungal; type: cell-based; conditions: Nakaseomyces glabratus, ATCC90030
Procedure: as §4, §3

[14] = tested on: tested strains of bacteria; parameters: method as in PMID 25412038; conditions: cited from earlier work

In the case of `Fc1ccc(C=Nn2c(-c3cccc(F)c3)n[nH]c2=S)cc1` [RO7, 4-[(4-fluorobenzylidene)amino]-5-(3-fluorophenyl)-2,4-dihydro-3H-1,2,4-triazole-3-thione], the MIC (C. albicans) is given as 4 µg/mL (≈ 0.0126 mM), the IC50 at 72 h (MTT cell viability assay; 72 h (table footnote)) is given as greater than 100 µM and the IC50 at 72 h (MTT cell viability assay; same value in µg/mL) is given as greater than 31.6 µg/mL. For the same molecule, the MBC [1] was greater than 1000 µg/mL, the MIC [1] was 500 µg/mL (≈ 1.58 mM) and the MIC [2] was greater than 1000 µg/mL. It also gave an MIC [3] greater than 1000 µg/mL, an MBC [4] greater than 1000 µg/mL and an MIC [4] of 500 µg/mL (≈ 1.58 mM). The MBC [5] was greater than 1000 µg/mL, the MIC [5] was 250 µg/mL (≈ 0.79 mM) and the MIC [6] was greater than 1000 µg/mL. The MIC [7] was greater than 1000 µg/mL, the pIC50 (MDA-MB-231; 72 h (table footnote)) was less than 4.00 and the IC50 (MDA-MB-231; same value in µg/mL) was greater than 31.6 µg/mL. It also gave a pIC50 (PC3; 72 h (table footnote)) of less than 4.00, an IC50 (PC3; same value in µg/mL) greater than 31.6 µg/mL and an MIC [8] greater than 1000 µg/mL. For the same molecule, the MIC [9] was greater than 1000 µg/mL, the MIC [10] was greater than 1000 µg/mL and the MIC [11] was greater than 1000 µg/mL. It also gave an MIC [12] greater than 1000 µg/mL, an MIC (Candida auris CDC B11903) greater than 1000 µg/mL and an MIC [13] greater than 1000 µg/mL. The MICs [14] was 16 to 125 µg/mL and the melting point was 217 to 218 °C.
